Measurements: article PMC12113681, “Discovery, Biological Evaluation and Binding Mode Investigation of Novel Butyrylcholinesterase Inhibitors Through Hybrid Virtual Screening” (Molecules, 2025)
Entries after “also recorded” stand apart in the source; their conditions may differ. Like-named read-outs stand apart in the source and are kept apart here.

Tests used:
[1] = target: T1, BChE (horse-serum, E.C. 3.1.1.8) (Equus caballus, UniProt P81908); experiment: biochemical
T1 construct: Sigma, St. Louis, MO, USA, horse-serum, E.C; 3.1.1.8; purchased Sigma; host or cells: horse serum
T1 sequence (P81908 whole entry): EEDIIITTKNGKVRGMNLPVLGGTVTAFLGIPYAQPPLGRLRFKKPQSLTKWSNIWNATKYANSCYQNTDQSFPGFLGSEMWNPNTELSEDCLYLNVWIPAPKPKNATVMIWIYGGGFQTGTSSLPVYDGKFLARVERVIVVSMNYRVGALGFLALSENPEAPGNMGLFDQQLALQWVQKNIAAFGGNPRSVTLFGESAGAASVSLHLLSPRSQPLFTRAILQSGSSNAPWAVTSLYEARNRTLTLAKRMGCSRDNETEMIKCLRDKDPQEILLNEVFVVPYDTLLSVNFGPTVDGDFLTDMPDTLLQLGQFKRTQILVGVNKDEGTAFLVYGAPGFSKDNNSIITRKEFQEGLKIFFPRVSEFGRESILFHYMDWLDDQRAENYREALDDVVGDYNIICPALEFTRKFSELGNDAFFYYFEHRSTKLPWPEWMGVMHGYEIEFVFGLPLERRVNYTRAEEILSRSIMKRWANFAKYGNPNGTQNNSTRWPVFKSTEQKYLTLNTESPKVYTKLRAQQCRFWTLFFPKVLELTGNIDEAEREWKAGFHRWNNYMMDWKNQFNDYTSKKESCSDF
Description: The inhibitory activity of BChE was evaluated using 96-well plates on a microplate reader (Varioskan LUX, Thermo Fisher, Waltham, MA, USA) based on a modified Ellman method. Briefly, 25 μL of BChE solution (0.2 U·mL^−1, Sigma, St. Louis, MO, USA, horse-serum, E.C. 3.1.1.8) was combined with 65 μL of phosphate buffer (PBS, 0.1 M, pH 8.0), 125 μL of 5,5′-dithio-bis(2-nitrobenzoic acid) (DTNB, 3 mM), and 10 μL of a test compound at varying concentrations. Small molecules (50 mM, Topscience) were initially dissolved in dimethyl sulfoxide (DMSO) and subsequently diluted to desired concentrations using PBS. The reaction mixture was preincubated at 37 °C for 20 min. Following this, 25 μL of butyrylthiocholine iodide (BTC, 15 mM) was added, and the absorbance was measured at 412 nm in 30-s intervals for 3 min.

in vitro = conditions: rat
Description: (§1) Well-differentiated rat adrenal pheochromocytoma cells (PC12) and the corresponding culture medium (WHAA24F163) were obtained from Procell Life Technology Co., Ltd. (Wuhan, China). The culture medium was supplemented with 10% fetal bovine serum (FBS, 164210-50) and 1% antibiotics (a penicillin–streptomycin mixture). PC12 cells were seeded into sterile 96-well plates at a density of 7000 cells per well (100 μL) and incubated for 24 h in a humidified incubator at 37 °C with 5% CO2. Subsequently, the cells were treated with varying concentrations of the test compounds (10, 20, and 50 μM in 100 μL) and cultured for an additional 24 h. Cell viability was assessed using the 3-(4,5-dimethylthiazol-2-yl)-2,5-diphenyltetrazolium bromide (MTT) assay (Xavier, Wuhan, China), following protocols described in a prior study.

PC12 cells [2] = experiment: Neuroprotection in H2O2-induced injury model, MTT assay; type: cell-based; conditions: for neuroprotective activity: 5 to 50 μM; for viability at 50 µM: Rattus norvegicus, PC-12, read-out: cell viability
Description: To assess the neuroprotective potential of the compounds, an H2O2-induced injury model in PC12 cells was established. PC12 cells were seeded into 96-well plates and incubated for 24 h, as described previously. […].

BChE [3] = target: T2, BChE (Equus caballus, UniProt P81908); experiment: Fluorescence quenching experiment (Stern-Volmer, Van't Hoff analysis); type: binding; conditions: for quenching rate constant (Kq): τ0 10^−8 s; for Kd: Ka (binding constant); for ∆H / ∆S: Van't Hoff, 298-310 K, regarded as a constant
T2 sequence (P81908 whole entry): as above
Description: Then, the Stern–Volmer Equation (1) was applied to analyze their quenching mechanisms.
Their binding constants (Ka) and binding sites (n) (Table 4) with BChE were calculated using the double logarithmic Equation (2) (Figure 5G,H).
Thermodynamic parameter analysis offers valuable insights into the predominant interaction forces governing the binding process between ligand and protein, which may encompass hydrogen bonding, electrostatic interactions, hydrophobic effects, van der Waals forces, and π-effects. By applying the Van’t Hoff Equation (3) and the Gibbs–Helmholtz Equation (4), the thermodynamic parameters—including change (ΔS), enthalpy change (ΔH), and Gibbs free energy change (ΔG)—for the interactions of piboserod and Rotigotine at various temperatures.
Fluorescence quenching experiment. The fluorescence intensity of the inhibitor–BChE complex was measured using a microplate reader with an all-black 96-well plate at three different temperatures (298, 304, and 310 K). The excitation wavelength was set to 280 nm, and the emission spectrum was scanned over the range of 320–460 nm with a slit width of 5 nm. The BChE concentration was maintained constant at 5 U·mL^−1, while the compound concentration was varied in a gradient (0 to 50 μM). After mixing the compound and BChE, the samples were incubated at the designated temperature for 30 min prior to measurement. A PBS solution was used as a blank to account for background fluorescence and ensure accurate correction of the fluorescence intensity measurements.

BChE [4] = target: T2, BChE; experiment: BChE enzyme kinetic study (Lineweaver-Burk); type: biochemical; parameters: Sigma, St. Louis, MO, USA, horse-serum, E.C; 3.1.1.8; purchased Sigma; host or cells: horse serum; conditions: for inhibition type: Lineweaver-Burk plots; for reversibility of inhibition: plots of v vs [BChE] at different inhibitor concentrations
Description: Kinetic studies were performed to clarify the inhibition mechanism of piboserod and Rotigotine. Figure 4A,B illustrates the relationship between BChE concentration ([BChE]) and catalytic rate (v) at different inhibitor concentrations ([I]). […] Lineweaver–Burk plots were used to characterize their inhibition types. […]. The inhibition constant (Ki) values were calculated based on Lineweaver–Burk secondary plots (Figure 4C,D). […]. […].
Kinetic studies were conducted to measure reaction rates using the same methodology as in the enzyme inhibition experiments. […]. The relationship between reaction rates and enzyme concentrations was used to assess whether the inhibition was reversible. Additionally, reaction rates (v, △OD417 ·min^−1) were measured at a constant BChE concentration (0.2 U·mL^−1) while varying substrate concentrations (0.05, 0.1, 0.2, 0.4, 0.8 mM). A double-reciprocal Lineweaver–Burk plot of reaction rate versus substrate concentration was generated to elucidate the inhibition type based on the intersection points of the curves. Common inhibition types were identified as follows: competitive (intersects on the Y-axis), non-competitive (intersects on the X-axis), uncompetitive (parallel lines), and mixed (intersects in the second or third quadrant). […]

PC12 cells [5] = experiment: in vitro; conditions: PC-12 cells
Description: as §1

[6] = PC-12 cells, hydrogen peroxide injury

Compound | IC50 [1] | neuroprotective activity (PC12 cells [2]; [6]) | viability at 50 µM (PC12 cells [2]) | Ksv (BChE [3]; 298 K) | n (binding sites) (BChE [3]; 298 K) | ∆G (BChE [3]; 298 K) | quenching rate constant (Kq) (BChE [3]; 298 K) | Ksv (BChE [3]; 304 K) | n (binding sites) (BChE [3]; 304 K) | ∆G (BChE [3]; 304 K) | Ksv (BChE [3]; 310 K) | n (binding sites) (BChE [3]; 310 K) | Kd (BChE [3]; 298 K) | Kd (BChE [3]; 304 K) | Kd (BChE [3]; 310 K) | ∆H (BChE [3]) | ∆S (BChE [3]) | Ki (BChE [4]) | inhibition type (BChE [4]) | reversibility of inhibition (BChE [4]) | further results
COc1cc2c(NC3CCN(C)CC3)nc(N3CCCN(C)CC3)nc2cc1OCc1ccccc1 [TM2-115] |  |  |  |  |  |  |  |  |  |  |  |  |  |  |  |  |  |  |  |  | IC50 ([1]; read-out: IC50): ~50 µM
Nc1c2c(nc3ccccc13)CCCC2 [Tacrine] |  |  |  |  |  |  |  |  |  |  |  |  |  |  |  |  |  |  |  |  | viability at 50 µM (in vitro): 65%
CCCCN1CCC(CNC(=O)c2c3n(c4ccccc24)CCCO3)CC1 [piboserod] | 15.3 ± 3.84 µM | significant neuroprotective activities | 66% | 5250 L/mol | 1.052 | -22.48 kJ/mol | 5.25e+11 M⁻¹ s⁻¹ | 4720 L/mol | 1.035 | -22.21 kJ/mol | 4250 L/mol | 1.014 | 11.6 µM | 14.9 µM | 20.4 µM | -35.77 kJ/mol | −44.61 J·mol^−1·K^−1 | 10.7 µM | mixed inhibitor; also recorded: mixed-type inhibition | reversibly inhibit BChE | ∆G (BChE [3]; 310 K): -21.94 kJ/mol; α value (ratio of non-competitive to competitive inhibition constants) (BChE [4]; Lineweaver-Burk secondary plots): 3.01
CN1C[C@H](CNC(=O)OCc2ccccc2)C[C@@H]2c3cccc4c3c(cn4C)C[C@H]21 [Metergoline] | 18.4 ± 3.29 µM |  |  |  |  |  |  |  |  |  |  |  |  |  |  |  |  |  |  |  | neurotoxicity (PC12 cells [5]; lowest concentration (10 μM)): no neurotoxicity; cytotoxicity (PC12 cells [5]; maximum concentration): higher cytotoxicity than that of Tacrine; neuroprotective effect (PC12 cells [2]; PC-12 cells, hydrogen peroxide injury, low concentrations (5–10 μM)): modest neuroprotective effects
CCCN(CCc1cccs1)[C@H]1CCc2c(O)cccc2C1 [Rotigotine] | 12.8 ± 4.22 µM | significant neuroprotective activities | 70% | 2640 L/mol | 1.066 | -21.20 kJ/mol | 2.64e+11 M⁻¹ s⁻¹ | 2250 L/mol | 1.022 | -20.03 kJ/mol | 1540 L/mol | 0.975 | 19.7 µM | 34.5 µM | 68.1 µM | -79.41 kJ/mol | −195.34 J·mol^−1·K^−1 | 6.76 µM | non-competitive inhibitor; also recorded: non-competitive inhibition | reversibly inhibit BChE | 
